These results are taken from patent publication US10858335B2 (Rigel Pharmaceuticals, Inc., priority 2014, dated 2020).

This experiment relates to GDF8 signaling (p-SMAD-3 (Ser423/425)). Nature of the experiment: AlphaScreen SureFire SMAD3 (p-Ser423/425) assay, GDF8-stimulated cells (GDF pSMAD). The conditions noted are these: Mus musculus, MPC-11, MPC11; GDF8-stimulated; p-SMAD3 AlphaScreen; read-out: GDF pSMAD (MPC11) (inhibition of GDF8 signaling). Type of experiment: cell-based. A general note: Bead proximity is the source of the signal in Alpha formats.
With `Nc1nccc2ccc(-c3cccnc3-c3ccc(F)c(Cl)c3)cc12` [compound 297, 7-(2-(3-Chloro-4-fluorophenyl)pyridin-3-yl)isoquinolin-1-amine], the IC50 came to 2260 nM.

Consider `Cc1cc(-c2ncccc2-c2ccc3ccnc(N)c3c2)ccc1F` [compound 298, 7-(2-(4-Fluoro-3-methylphenyl)pyridin-3-yl)isoquinolin-1-amine], for which the IC50 was 999 nM.

`Cc1cc(-c2nc3c(cc2-c2ccc4[nH]ncc4c2)N(C)CCO3)ccc1F` [compound 300, 6-(4-Fluoro-3-methylphenyl)-7-(1H-indazol-5-yl)-1-methyl-2,3-dihydro-1H-pyrido[2,3-b][1,4]oxazine]: the IC50 was determined as 12800 nM.

For the compound `Nc1nc2ccc(-c3cccnc3-c3cccc(Cl)c3)nc2s1` [compound 301, 5-(2-(3-Chlorophenyl)pyridin-3-yl)thiazolo[5,4-b]pyridin-2-amine], the IC50 came to 345 nM.

For the compound `Nc1nc2ccc(-c3cccnc3-c3ccc(F)c(Cl)c3)nc2s1` [compound 302, 5-(2-(3-Chloro-4-fluorophenyl)pyridin-3-yl)thiazolo[5,4-b]pyridin-2-amine], the IC50 came to 795 nM.

With `Cc1cc(-c2ncccc2-c2ccc3ncsc3n2)ccc1F` [compound 303, 5-(2-(4-Fluoro-3-methylphenyl)pyridin-3-yl)thiazolo[5,4-b]pyridine], the IC50 came to 94.7 nM.

Take `Cc1cccc(-c2ncccc2-c2ccc3ncsc3n2)c1` [compound 304, 5-(2-(m-Tolyl)pyridin-3-yl)thiazolo[5,4-b]pyridine]: the IC50 came to 85.3 nM.

Take `Fc1ccc(-c2ncccc2-c2ccc3ncsc3n2)cc1Cl` [compound 305, 5-(2-(3-Chloro-4-fluorophenyl)pyridin-3-yl)thiazolo[5,4-b]pyridine]: the IC50 worked out at 175 nM.

Take `Cc1cc(-c2ncc(NCc3cccnc3)cc2-c2ccc3ncsc3c2)ccc1F` [compound 306, 5-(Benzo[d]thiazol-6-yl)-6-(4-fluoro-3-methylphenyl)-N-(pyridin-3-ylmethyl)pyridin-3-amine]: the IC50 stood at 129 nM.

As for `Cc1cc(-c2ncc(NCc3ccc(C(N)=O)cc3)cc2-c2ccc3nccnc3c2)ccc1F` [compound 307, 4-(((6-(4-Fluoro-3-methylphenyl)-5-(quinoxalin-6-yl)pyridin-3-yl)amino)methyl)benzamide], the IC50 is 2220 nM.

`Cc1cc(-c2ncc(NCc3ccc(C#N)cc3)cc2-c2ccc3nccnc3c2)ccc1F` [compound 308, 4-(((6-(4-Fluoro-3-methylphenyl)-5-(quinoxalin-6-yl)pyridin-3-yl)amino)methyl)benzonitrile]: the IC50 was found to be 4810 nM.

Take `Cc1cc(-c2ncc(NCc3ccc(C#N)cc3)cc2-c2ccc3ncsc3c2)ccc1F` [compound 309, 4-(((5-(Benzo[d]thiazol-6-yl)-6-(4-fluoro-3-methylphenyl)pyridin-3-yl)amino)methyl)benzonitrile]: the IC50 was 1480 nM.

Regarding `Cc1cc(-c2ncc(Nc3ccc(C(N)=O)cc3)cc2-c2ccc3ncsc3c2)ccc1F` [compound 310, 4-((5-(Benzo[d]thiazol-6-yl)-6-(4-fluoro-3-methylphenyl)pyridin-3-yl)amino)benzamide], the IC50 was determined as 1140 nM.

With `Cc1cc(-c2ncc(Nc3ccncc3)cc2-c2ccc3ncsc3c2)ccc1F` [compound 311, 5-(Benzo[d]thiazol-6-yl)-6-(4-fluoro-3-methylphenyl)-N-(pyridin-4-yl)pyridin-3-amine], the IC50 was 4720 nM.

Regarding `Cc1cc(-c2ncc(NC(=O)CCN3CCOCC3)cc2-c2ccc3ncsc3c2)ccc1F` [compound 312, N-(5-(Benzo[d]thiazol-6-yl)-6-(4-fluoro-3-methylphenyl)pyridin-3-yl)-3-morpholinopropanamide], the IC50 was 7540 nM.

With `Cc1cc(-c2ncc(NC(=O)c3ccncc3)cc2-c2ccc3ncsc3c2)ccc1F` [compound 314, N-(5-(Benzo[d]thiazol-6-yl)-6-(4-fluoro-3-methylphenyl)pyridin-3-yl)isonicotinamide], the IC50 is 5340 nM.

Take `Cc1cc(-c2ncc(NC(=O)c3cccnc3)cc2-c2ccc3ncsc3c2)ccc1F` [compound 315, N-(5-(Benzo[d]thiazol-6-yl)-6-(4-fluoro-3-methylphenyl)pyridin-3-yl)nicotinamide]: the IC50 worked out at 749 nM.

With `CCCC(=O)Nc1cnc(-c2ccc(F)c(C)c2)c(-c2ccc3ncsc3c2)c1` [compound 316, N-(5-(Benzo[d]thiazol-6-yl)-6-(4-fluoro-3-methylphenyl)pyridin-3-yl)butyramide], the IC50 was 6390 nM.

In the case of `Cc1cc(-c2ncc(NC(=O)CCCc3ccncc3)cc2-c2ccc3ncsc3c2)ccc1F` [compound 317, N-(5-(Benzo[d]thiazol-6-yl)-6-(4-fluoro-3-methylphenyl)pyridin-3-yl)-4-(pyridin-4-yl)butanamide], the IC50 is 5500 nM.

For the compound `Cc1cc(-c2ncc(-c3ccc(C(N)=O)cc3)cc2-c2ccc3ncsc3c2)ccc1F` [compound 318, 4-(5-(Benzo[d]thiazol-6-yl)-6-(4-fluoro-3-methylphenyl)pyridin-3-yl)benzamide], the IC50 turned out to be 1300 nM.

As for `Cc1cc(-c2ncc(N3CCN(C)CC3)cc2-c2ccc3ncsc3c2)ccc1F` [compound 319, 6-(2-(4-Fluoro-3-methylphenyl)-5-(4-methylpiperazin-1-yl)pyridin-3-yl)benzo[d]thiazole], the IC50 worked out at 10600 nM.

`Cc1cc(-c2ncc(NCCCN3CCN(C)CC3)cc2-c2ccc3ncsc3c2)ccc1F` [compound 320, 5-(Benzo[d]thiazol-6-yl)-6-(4-fluoro-3-methylphenyl)-N-(3-(4-methylpiperazin-1-yl)propyl)pyridin-3-amine]: the IC50 is 2990 nM.

On to `Cc1cc(-c2ncc(NCc3ccc(Cl)nc3)cc2-c2ccc3ncsc3c2)ccc1F` [compound 321, 5-(Benzo[d]thiazol-6-yl)-N-((6-chloropyridin-3-yl)methyl)-6-(4-fluoro-3-methylphenyl)pyridin-3-amine], for which the IC50 amounted to 679 nM.

Consider `Cc1cc(-c2ncc(NCc3cnc[nH]3)cc2-c2ccc3ncsc3c2)ccc1F` [compound 322, N-((1H-Imidazol-5-yl)methyl)-5-(benzo[d]thiazol-6-yl)-6-(4-fluoro-3-methylphenyl)pyridin-3-amine], for which the IC50 was determined as 253 nM.

Turning to `CCc1ncc(CNc2cnc(-c3ccc(F)c(C)c3)c(-c3ccc4ncsc4c3)c2)[nH]1` [compound 323, 5-(Benzo[d]thiazol-6-yl)-N-((2-ethyl-1H-imidazol-5-yl)methyl)-6-(4-fluoro-3-methylphenyl)pyridin-3-amine], the IC50 was found to be 327 nM.

As for `COc1ccc(CNc2cnc(-c3ccc(F)c(C)c3)c(-c3ccc4ncsc4c3)c2)cn1` [compound 324, 5-(Benzo[d]thiazol-6-yl)-6-(4-fluoro-3-methylphenyl)-N-((6-methoxypyridin-3-yl)methyl)pyridin-3-amine], the IC50 turned out to be 461 nM.

Turning to `Cc1cc(-c2ncc(NCc3nccs3)cc2-c2ccc3ncsc3c2)ccc1F` [compound 326, 5-(Benzo[d]thiazol-6-yl)-6-(4-fluoro-3-methylphenyl)-N-(thiazol-2-ylmethyl)pyridin-3-amine], the IC50 was determined as 198 nM.

As for `Cc1cc(-c2ncc(NCc3cncs3)cc2-c2ccc3ncsc3c2)ccc1F` [compound 327, 5-(Benzo[d]thiazol-6-yl)-6-(4-fluoro-3-methylphenyl)-N-(thiazol-5-ylmethyl)pyridin-3-amine], the IC50 turned out to be 323 nM.

As for `Cc1cc(-c2ncc(NCc3ccc(-c4cccnc4)nc3)cc2-c2ccc3ncsc3c2)ccc1F` [compound 328, N-([2,3′-Bipyridin]-5-ylmethyl)-5-(benzo[d]thiazol-6-yl)-6-(4-fluoro-3-methylphenyl)pyridin-3-amine], the IC50 stood at 2500 nM.

As to `Cc1cc(-c2ncc(NCc3cnc4[nH]ccc4c3)cc2-c2ccc3ncsc3c2)ccc1F` [compound 329, N-((1H-Pyrrolo[2,3-b]pyridin-5-yl)methyl)-5-(benzo[d]thiazol-6-yl)-6-(4-fluoro-3-methylphenyl)pyridin-3-amine], the IC50 amounted to 803 nM.

Regarding `Cc1cc(-c2ncc(NCc3c[nH]c4ncccc34)cc2-c2ccc3ncsc3c2)ccc1F` [compound 330, N-((1H-Pyrrolo[2,3-b]pyridin-3-yl)methyl)-5-(benzo[d]thiazol-6-yl)-6-(4-fluoro-3-methylphenyl)pyridin-3-amine], the IC50 was found to be 456 nM.

Take `Cc1cc(-c2ncc(NCc3cccnc3C)cc2-c2ccc3ncsc3c2)ccc1F` [compound 331, 5-(Benzo[d]thiazol-6-yl)-6-(4-fluoro-3-methylphenyl)-N-((2-methylpyridin-3-yl)methyl)pyridin-3-amine]: the IC50 was 1330 nM.

Regarding `Cc1cc(-c2ncc(NCc3cccc(O)c3)cc2-c2ccc3ncsc3c2)ccc1F` [compound 332, 3-(((5-(Benzo[d]thiazol-6-yl)-6-(4-fluoro-3-methylphenyl)pyridin-3-yl)amino)methyl)phenol], the IC50 worked out at 312 nM.

Turning to `Cc1cc(-c2ncc(NCc3ccc(O)cc3)cc2-c2ccc3ncsc3c2)ccc1F` [compound 333, 4-(((5-(Benzo[d]thiazol-6-yl)-6-(4-fluoro-3-methylphenyl)pyridin-3-yl)amino)methyl)phenol], the IC50 amounted to 376 nM.

In the case of `Cc1ccc(CNc2cnc(-c3ccc(F)c(C)c3)c(-c3ccc4ncsc4c3)c2)cn1` [compound 334, 5-(Benzo[d]thiazol-6-yl)-6-(4-fluoro-3-methylphenyl)-N-((6-methylpyridin-3-yl)methyl)pyridin-3-amine], the IC50 turned out to be 373 nM.

As for `Cc1cc(-c2ncc(NCc3cnc4c(c3)ncn4C)cc2-c2ccc3ncsc3c2)ccc1F` [compound 335, 5-(Benzo[d]thiazol-6-yl)-6-(4-fluoro-3-methylphenyl)-N-((3-methyl-3H-imidazo[4,5-b]pyridin-6-yl)methyl)pyridin-3-amine], the IC50 is 306 nM.

As for `Cc1cc(-c2ncc(NCc3cccc4cccnc34)cc2-c2ccc3ncsc3c2)ccc1F` [compound 336, 5-(Benzo[d]thiazol-6-yl)-6-(4-fluoro-3-methylphenyl)-N-(quinolin-8-ylmethyl)pyridin-3-amine], the IC50 is 764 nM.
